Measurements reported in the NIST ThermoML archive (doi:10.1021/je9000922).
Numbers after ± are expanded uncertainties.

Details: 355.65 K; Liquid

Question: Which “vapor or sublimation pressure” value does the source give for `CC(C)O` [propan-2-ol] here?
Answer: 101.32 ± 3 kPa
